Patent US20210292340A1, “CELL NECROSIS INHIBITOR, PREPARATION METHOD THEREFOR AND USE THEREOF” (SHANGHAI INSTITUTE OF ORGANIC CHEMISTRY, CHINESE ACADEMY OF …, priority 2018, published 2021)

test system: Jurkat (FADD−/−) cells; assay: Inhibition of TNF-induced programmed Jurkat (FADD−/−) cell necrosis (Cell Titer-Glo); type: cell-based, human; details: Homo sapiens, Jurkat, 20 h, TNF 10 ng/mL, intracellular ATP level, read-out: Cellular IC50 (M) Jurkat (FADD−/−)
Protocol: Two replicate wells were set for each concentration of each compound.
Jurkat (FADD^−/−) cells (human-derived peripheral blood leukemia T cell line, with FADD gene knocked out) were cultured in vitro. After growing to logarithmic growth phase, the cells were harvested, and centrifuged at 1000 rpm for 5 min. The supernatant was discarded, and the cells were resuspended in fresh medium and adjusted to a cell density of 5×10^5/mL. The cell suspension was added to the culture plate containing the drug (40 μL per well). In the treatment groups, 10 μL of TNF (tumor necrosis factor, final concentration 10 ng/mL) diluted with the cell culture medium was added to each well, and incubated for 20 h in a cell incubator (37° C., 5% CO2). Subsequently, 50 μL of Cell Titer-Glo solution was added to each well and incubated at room temperature for 10 min. Then, the luminescence was detected on BioTek plate reader to measure the intracellular ATP level. The effect of the test compounds in inhibiting TNF-induced cell necrosis was calculated from the full-activity well and background well (with the untreated DMSO control well as 100% cell viability), and the half inhibitory concentration (IC50) of the compound was calculated by Graphpad Prism statistical software.

Row | Structure (SMILES) | IC50 [M]
1 | CN1C(=O)[C@@H](NC(=O)c2cc(Cc3ccccc3)on2)CSc2cc3occc3cc21 [RIP1-038] | 1.29e-10
2 | CC(=O)n1ncc2cc3c(cc21)SC[C@H](NC(=O)c1cc(Cc2ccccc2)on1)C(=O)N3C [RIP1-018] | 2.7e-10
3 | CN1C(=O)[C@@H](NC(=O)c2ncn(Cc3ccccc3)n2)COc2cc3[nH]ncc3cc21 [RIP1-025] | 2.86e-10
4 | Cc1ccc(Cc2cc(C(=O)N[C@H]3COc4cc5[nH]c(C)nc5cc4N(C)C3=O)nn2C)cc1 [RIP1-072] | 9.65e-08
5 | CN1C(=O)[C@@H](NC(=O)c2cn(Cc3ccccc3)cn2)CSc2ccc3ncccc3c21 [RIP1-094] | 2e-09
6 | CN1C(=O)[C@@H](NC(=O)c2cnc(Cc3ccccc3)[nH]2)CSc2cc3[nH]ccc3cc21 [RIP1-047] | 2.15e-08
7 | CN1C(=O)[C@@H](NC(=O)c2cncn2Cc2ccccc2)CSc2cc3[nH]ncc3cc21 [RIP1-017] | > 2e-06
8 | CN1C(=O)[C@@H](NC(=O)c2cc(Cc3ccccc3)on2)CSc2cc3c(ccn3Cc3ccccc3)cc21 [RIP1-085] | > 2e-06
9 | Cc1ccc(Cc2cc(C(=O)N[C@H]3CSc4cc5[nH]ccc5cc4N(C)C3=O)nn2C)cc1 [RIP1-045] | > 2e-06
10 | CN1C(=O)[C@@H](NC(=O)c2n[nH]c(Cc3cccc(F)c3)n2)COc2ccc3cnccc3c21 [RIP1-165] | 2.5e-09
11 | CN1C(=O)[C@@H](NC(=O)c2cnn(Cc3ccccc3)c2)CSc2cc3[nH]ncc3cc21 [RIP1-014] | 2.6e-08
12 | CN1C(=O)[C@@H](NC(=O)c2cn(Cc3ccccc3)cn2)CSc2cc3[nH]ccc3cc21 [RIP1-006] | 1.25e-09
13 | CN1C(=O)[C@@H](NC(=O)c2cc(Oc3c(F)cccc3F)ccn2)COc2ccc3ncccc3c21 [RIP1-198] | 4.57e-09
14 | CN1C(=O)[C@@H](NC(=O)c2cc(Cc3ccccc3)ccn2)COc2cc3ncoc3cc21 [RIP1-221] | 7.31e-09
15 | CN1C(=O)[C@@H](NC(=O)c2ncn(Cc3ccccc3)n2)COc2cc3nccnc3cc21 [RIP1-128] | 4.83e-07
16 | Cc1nc2cc3c(cc2[nH]1)OC[C@H](NC(=O)c1coc(Cc2ccccc2)n1)C(=O)N3C [RIP1-065] | > 2e-06
17 | Cc1ccc(Cc2cc(C(=O)N[C@H]3COc4cc5[nH]c(C)nc5cc4N(C)C3=O)n(C)n2)cc1 [RIP1-073] | > 2e-06
18 | CN1C(=O)[C@@H](NC(=O)c2n[nH]c(Cc3ccc(F)cc3)n2)COc2cc3ncoc3cc21 [RIP1-185] | 2.72e-09
19 | CN1C(=O)[C@@H](NC(=O)c2cc(Oc3cccnc3)ccn2)COc2cc3ncoc3cc21 [RIP1-212] | 1.81e-08
20 | CN1C(=O)[C@@H](NC(=O)c2n[nH]c(Cc3cccc(F)c3)n2)COc2ccc3ncccc3c21 [RIP1-172] | 5e-09
21 | CN1C(=O)[C@@H](NC(=O)c2n[nH]c(Cc3cccc(F)c3)n2)COc2cc3nccnc3cc21 [RIP1-209] | 1.92e-09
22 | CN1C(=O)[C@@H](NC(=O)c2ncn(Cc3ccccc3)n2)CSc2cc3occc3cc21 [RIP1-037] | 1.29e-10
23 | COc1ncnc2cc3c(cc12)N(C)C(=O)[C@@H](NC(=O)c1n[nH]c(Cc2ccc(F)cc2)n1)CO3 [RIP1-158] | 8e-09
24 | COc1ncnc2cc3c(cc12)N(C)C(=O)[C@@H](NC(=O)c1n[nH]c(Cc2ccccc2F)n1)CO3 [RIP1-160] | 2.2e-09

Row | Structure (SMILES) | IC50 [M]
25 | CN1C(=O)[C@@H](NC(=O)c2cc(Oc3ccccc3F)ccn2)COc2ccc3ncccc3c21 [RIP1-203] | 2.33e-09
26 | CN1C(=O)[C@@H](NC(=O)c2n[nH]c(Cc3c(F)cccc3F)n2)COc2ccc3ncccc3c21 [RIP1-168] | 1.1e-08
27 | CN1C(=O)[C@@H](NC(=O)c2cc(Oc3ccccc3)ccn2)COc2cc3ncoc3cc21 [RIP1-186] | 7.52e-10
28 | CN1C(=O)[C@@H](NC(=O)c2cc(Cc3ccccc3)on2)CSc2cc3c(ccn3C)cc21 [RIP1-009] | 1.08e-09
29 | CN1C(=O)[C@@H](NC(=O)c2cn(Cc3ccccc3)cn2)CSc2cc3[nH]ncc3cc21 [RIP1-016] | 2.3e-10
30 | CN1C(=O)[C@@H](NC(=O)c2n[nH]c(Cc3ccccc3F)n2)COc2ccc3cnccc3c21 [RIP1-163] | 1.3e-09
31 | CN1C(=O)[C@@H](NC(=O)c2n[nH]c(Cc3ccccc3)n2)CSc2cc3[nH]ncc3cc21 [RIP1-013] | 5.3e-10
32 | COc1ncnc2cc3c(cc12)N(C)C(=O)[C@@H](NC(=O)c1n[nH]c(Cc2cccc(F)c2)n1)CO3 [RIP1-159] | 8.7e-09
33 | CN1C(=O)[C@@H](NC(=O)c2nnc(Cc3ccccc3F)[nH]2)COc2cc3ocnc3cc21 [RIP1-219] | 6.75e-10
34 | CN1C(=O)[C@@H](NC(=O)c2cc(Oc3ccccc3)ccn2)COc2cc3[nH]ccc3cc21 [RIP1-189] | 1.93e-10
35 | CN1C(=O)[C@@H](NC(=O)c2cn(Cc3ccccc3)cn2)COc2cc3[nH]ncc3cc21 [RIP1-022] | 5.66e-10
36 | CN1C(=O)[C@@H](NC(=O)c2cn(Cc3ccccc3)cn2)CSc2cc3c(ccn3C)cc21 [RIP1-055] | 2.29e-09
37 | CN1C(=O)[C@@H](NC(=O)c2ncn(Cc3ccccc3)n2)CSc2cc3[nH]nc(Cl)c3cc21 [RIP1-026] | 2.8e-10
38 | CN1C(=O)[C@@H](NC(=O)c2cccc(Cc3ccccc3)c2)CSc2cc3c(ccn3C)cc21 [RIP1-011] | 3.24e-07
39 | CN1C(=O)[C@@H](NC(=O)c2cccc(Oc3ccccc3)n2)COc2ccc3ncccc3c21 [RIP1-194] | 7.28e-06
40 | CN1C(=O)[C@@H](NC(=O)c2n[nH]c(Cc3c(F)cccc3F)n2)COc2cc3ncoc3cc21 [RIP1-183] | 6.15e-09
41 | CN1C(=O)[C@@H](NC(=O)c2cc(Oc3cc(F)cc(F)c3)ccn2)COc2ccc3ncccc3c21 [RIP1-205] | 7.11e-09
42 | CN1C(=O)[C@H](NC(=O)c2cc(Cc3ccccc3)on2)COc2cc3c(ccn3C)cc21 [RIP1-080] | > 2e-06
43 | CN1C(=O)[C@@H](NC(=O)c2cc(Oc3ccccc3)ccn2)COc2cc3nccnc3cc21 [RIP1-177] | 2.03e-09
44 | CN1C(=O)[C@H](NC(=O)c2nnc(Cc3ccccc3)o2)COc2cc3c(ccn3C)cc21 [RIP1-081] | > 2e-06
45 | CN1C(=O)[C@@H](NC(=O)c2n[nH]c(Cc3ccccc3F)n2)COc2ccc3ncccc3c21 [RIP1-170] | 1.74e-09
46 | CN1C(=O)[C@@H](NC(=O)c2ncn(Cc3ccccc3)n2)CSc2ccc3cnccc3c21 [RIP1-103] | 6.75e-09
47 | CN1C(=O)[C@@H](NC(=O)c2ccnc(Nc3ccccc3)n2)COc2ccc3ncccc3c21 [RIP1-202] | > 2e-05
48 | CN1C(=O)[C@@H](NC(=O)c2ccnc(Oc3ccccc3)n2)COc2ccc3ncccc3c21 [RIP1-199] | 4.76e-05

Row | Structure (SMILES) | IC50 [M]
49 | CN1C(=O)[C@@H](NC(=O)c2ncn(Cc3ccccc3)n2)COc2cc3[nH]ccc3cc21 [RIP1-113] | 3.07e-10
50 | CN1C(=O)[C@@H](NC(=O)c2n[nH]c(Cc3c(F)cc(F)cc3F)n2)COc2cc3ncoc3cc21 [RIP1-184] | 3.76e-08
51 | CN1C(=O)[C@@H](NC(=O)c2nnc(Cc3ccccc3)[nH]2)CSc2ccc3ncccc3c21 [RIP1-092] | 1.05e-09
52 | Cc1nc2cc3c(cc2[nH]1)OC[C@H](NC(=O)c1cccc(Cc2ccccc2)c1)C(=O)N3C [RIP1-066] | 6.7e-07
53 | Cc1nc2cc3c(cc2[nH]1)OC[C@H](NC(=O)c1cnnn1Cc1ccccc1)C(=O)N3C [RIP1-064] | > 2e-06
54 | CN1C(=O)[C@@H](NC(=O)c2nccc(Oc3ccccc3)n2)COc2cc3ncoc3cc21 [RIP1-213] | 7.68e-08
55 | CN1C(=O)[C@@H](NC(=O)c2ncn(Cc3ccccc3)n2)CSc2cc3[nH]ncc3cc21 [RIP1-020] | 2.3e-10
56 | CN1C(=O)[C@H](NC(=O)c2cnn(Cc3ccccc3)c2)COc2cc3c(ccn3C)cc21 [RIP1-082] | > 2e-06
57 | CN1C(=O)[C@@H](NC(=O)c2n[nH]c(Cc3c(F)cc(F)cc3F)n2)COc2ccc3ncccc3c21 [RIP1-169] | 1.13e-07
58 | CN1C(=O)[C@@H](NC(=O)c2cc(Oc3cccnc3)ccn2)COc2cc3nccnc3cc21 [RIP1-214] | 2.41e-08
59 | CN1C(=O)[C@@H](NC(=O)c2cc(Oc3ccccc3)ccn2)COc2ccc3cnccc3c21 [RIP1-178] | 3.23e-10
60 | Cc1nc2cc3c(cc2[nH]1)OC[C@H](NC(=O)c1cnn(Cc2ccccc2)c1)C(=O)N3C [RIP1-062] | > 2e-06
61 | CN1C(=O)[C@@H](NC(=O)c2cncn2Cc2ccccc2)CSc2cc3[nH]ccc3cc21 [RIP1-005] | > 2e-06
62 | CN1C(=O)[C@@H](NC(=O)c2n[nH]c(Cc3cccc(F)c3)n2)COc2cc3ncoc3cc21 [RIP1-222] | 5.62e-09
63 | CN1C(=O)[C@@H](NC(=O)c2ncn(Cc3ccccc3)n2)CSc2cc3[nH]ccc3cc21 [RIP1-008] | 2.4e-10
64 | CN1C(=O)[C@@H](NC(=O)c2cn(Cc3ccccc3)nn2)CSc2cc3c(ccn3C)cc21 [RIP1-048] | 5.1e-09
65 | CN1C(=O)[C@@H](NC(=O)c2cn(Cc3ccccc3)nn2)CSc2cc3[nH]ncc3cc21 [RIP1-019] | 6.8e-10
66 | CN1C(=O)[C@@H](NC(=O)c2cnnn2Cc2ccccc2)CSc2cc3c(ccn3C)cc21 [RIP1-052] | > 2e-06
67 | Cc1ccc(Cc2cc(C(=O)N[C@H]3COc4cc5[nH]nnc5cc4N(C)C3=O)nn2C)cc1 [RIP1-141] | 2.19e-08
68 | CN1C(=O)[C@@H](NC(=O)c2n[nH]c(Cc3ccccc3F)n2)COc2cc3nccnc3cc21 [RIP1-208] | 1.49e-09
69 | CN1C(=O)[C@@H](NC(=O)c2cnn(Cc3ccccc3)c2)CSc2cc3[nH]ccc3cc21 [RIP1-004] | 5.63e-08
70 | Cc1nc2cc3c(cc2[nH]1)OC[C@H](NC(=O)c1nnc(Cc2ccccc2)o1)C(=O)N3C [RIP1-070] | 2.15e-06

same assay, conditions: TNF 10 ng/mL, 20 h, intracellular ATP level; read-out: Cellular IC50 (M) Jurkat (FADD−/−)

Row | Structure (SMILES) | IC50 [M]
71 | CN1C(=O)[C@@H](NC(=O)c2n[nH]c(Cc3ccccc3F)n2)COc2ccc3ncccc3c21 [RIP1-170] | 3e-09
